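Following 48 hours of exposure in 96-well plates, responses at five concentrations were used to interpolate endpoints linearly. GI50 marks 50% less growth.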 Activity calls are given as the source filed them. Cut-off read from the data, not from the text of the source: active = GI50 up to about 1.1 µM and inactive = higher.
Tests used:
Experiment in all cases: DTP human tumour cell line panel, 48 h
U-251 = test system: U-251
OVCAR-4 = test system: OVCAR-4
PC-3 = test system: PC-3
T47D = test system: T47D
NCI-H460 = test system: NCI-H460
HCT-15 = test system: HCT-15
IGROV-1 = test system: IGROV-1
A549 = test system: A549
RXF 393 = test system: RXF 393
EKVX = test system: EKVX
K562 = test system: K562
SF-295 = test system: SF-295
SK-MEL-28 = test system: SK-MEL-28
NCI-H23 = test system: NCI-H23
A498 = test system: A498
MDA-MB-231 = test system: MDA-MB-231
SK-MEL-2 = test system: SK-MEL-2
MOLT-4 = test system: MOLT-4
TK-10 = test system: TK-10
SF-539 = test system: SF-539

SMILES	GI50 (U-251)	GI50 (OVCAR-4)	GI50 (PC-3)	GI50 (T47D)	GI50 (NCI-H460)	GI50 (HCT-15)	GI50 (IGROV-1)	GI50 (A549)	GI50 (RXF 393)	GI50 (EKVX)	GI50 (K562)	GI50 (SF-295)	GI50 (SK-MEL-28)	GI50 (NCI-H23)	GI50 (A498)	GI50 (MDA-MB-231)	GI50 (SK-MEL-2)	GI50 (MOLT-4)	GI50 (TK-10)	GI50 (SF-539)
O=C(O)/C(O)=C\C(=O)c1ccc(Br)cc1	> 100 µM (inactive)	> 100 µM (inactive)	> 100 µM (inactive)	> 100 µM (inactive)	> 100 µM (inactive)	> 100 µM	> 100 µM (inactive)	> 100 µM (inactive)	> 100 µM (inactive)	2.98 µM (inactive)	> 100 µM (inactive)	> 100 µM (inactive)	> 100 µM (inactive)	> 100 µM (inactive)	> 100 µM (inactive)	> 100 µM (inactive)	> 100 µM (inactive)	> 100 µM (inactive)	> 100 µM (inactive)	
COc1cc(C=O)ccc1O [VANILLIN]	> 100 µM (inactive)	> 100 µM (inactive)	> 100 µM (inactive)	> 100 µM (inactive)	> 100 µM (inactive)	> 100 µM	> 100 µM (inactive)	> 100 µM (inactive)		> 100 µM (inactive)	> 100 µM (inactive)	> 100 µM (inactive)	> 100 µM (inactive)	> 100 µM (inactive)		> 100 µM (inactive)		> 100 µM (inactive)	> 100 µM (inactive)	> 100 µM (inactive)
O=[N+]([O-])c1c2nc3n(c2cc2c1nc1n2CCC1)CCC3	> 100 µM (inactive)	> 100 µM (inactive)	> 100 µM (inactive)	> 100 µM (inactive)	> 100 µM (inactive)	> 100 µM	> 100 µM (inactive)	> 100 µM (inactive)	> 100 µM (inactive)	> 100 µM (inactive)	> 100 µM (inactive)	> 100 µM (inactive)	> 100 µM (inactive)	> 100 µM (inactive)	> 100 µM (inactive)	> 100 µM (inactive)		> 100 µM (inactive)	> 100 µM (inactive)	> 100 µM (inactive)
COc1ccc(C2CC(=O)CC(c3ccc(OC)cc3)C23C(=O)NC(=O)NC3=O)cc1 (stereo not drawn)	57.8 µM (inactive)	67 µM (inactive)	33.9 µM (inactive)	> 10 µM (inactive)	35.8 µM (inactive)	67.8 µM	26.2 µM (inactive)		45.9 µM (inactive)	32.9 µM (inactive)	37.9 µM (inactive)	38 µM (inactive)	17.2 µM (inactive)	23.4 µM (inactive)		39.1 µM (inactive)	18.5 µM (inactive)	19 µM (inactive)	89.5 µM (inactive)	> 100 µM (inactive)
